# Experimental data from US10201158B2, “Plant disease control composition and method for controlling plant disease by application of same” (MITSUI CHEMICALS AGRO, INC., priority 2014, dated 2019).
# Values joined by “and” are separate entries in the source; they are usually repeats but may differ in a detail not shown here. Equal values may be shown once. Read-outs that look alike come from different tables or passages of the source.
# Assays:
# [1] = system: Pseudoperonospora cubensis; test: Cucumber downy mildew preventive test; format: in vivo; conditions: Table 8, 7 days after inoculation
# Procedure: In a greenhouse, cucumber (variety: Sagamihanshiro) planted in a plastic pot having a diameter of 5 cm was grown to the 3rd to 5th-leaf stage. Spray was carried out in the same manner as in Test example 1, and after drying the chemical liquid, the pots were transferred into a greenhouse. After 3 days from the spray, a zoosporangium suspension of Pseudoperonospora cubensis was inoculated. After inoculation, the pots were placed in a high-humidity chamber (20 to 25° C.), transferred into a greenhouse on the next day, and controlling effects were examined after 7 days from the inoculation. A ratio of lesion area occupied per one leaf of cucumber was determined according to the same index as in Test example 1, and the control value and the theoretical value according to Colby's formula were similarly calculated.
# Blumeria graminis = test: Barley powdery mildew preventive test; format: in vivo; conditions: Table 4, 8 days after inoculation
# Procedure: Barley plants (variety: Akashinriki) planted in plastic pots having a diameter of 5 cm were grown indoors to the second to fourth leaf stage. Wettable powder containing the compounds indicated in Table 4 were sprayed in the same manner as in Test Example 1, and after the chemical had dried, conidia of Blumeria graminis was inoculated onto the leaves. Following inoculation, the pots were transferred to a constant-temperature chamber (20° C. to 25° C.), and control effects were examined 8 days after inoculation.
# Botrytis cinerea = conditions: in vivo
# Puccinia recondita = test: Wheat brown rust preventive test; format: in vivo; conditions: Table 5, 8 days after inoculation
# Procedure: Wheat plants (variety: Norin 61 gou) planted in plastic pots having a diameter of 5 cm were grown indoors to the second to fourth leaf stage. Wettable powder containing the compounds indicated in Table 5 were sprayed in the same manner as in Test Example 1, and after the chemical had dried, a conidia suspension of Puccinia recondita was inoculated onto the leaves. Following inoculation, the pots were placed in the humidified chamber of an artificial inoculation room (20° C. to 23° C.), removed on the following day and then transferred to a greenhouse. Control effects were examined 8 days after inoculation. During the examination, the number of lesions on five leaves of the wheat plants was determined in accordance with the following incidence degree indicators, and control values and theoretical values as determined according to Colby's formula were calculated in the same manner as in Test Example 1.
# Phytophthora infestans = format: in vivo; conditions: 5 days after inoculation; for Control value: Table 6-1
# Sphaerotheca fuliginea = test: Cucumber powdery mildew preventive test; format: in vivo; conditions: in vivo
# Procedure: In a greenhouse, cucumber (variety: Sagamihanshiro) planted in a plastic pot having a diameter of 5 cm was grown to the 3rd to 5th-leaf stage. Spray was carried out in the same manner as in Test example 1, and 3 days after the spray, a conidia suspension prepared from Sphaerotheca fuliginea were inoculated on the leaf surface. After inoculation, the pots were placed in a thermostatic greenhouse (20 to 25° C.), and controlling effects were examined after 7 days from the inoculation. In the examination, a ratio of lesion area occupied per one leaf of cucumber was determined according to the same index as in Test example 1, and the control value and the theoretical value according to Colby's formula were similarly calculated.
# Wettable powder prepared in compliance with Comparative Preparation Example 4 containing the compounds indicated in Table 7-9 were sprayed to the cucumber leaves, a conidiospore suspension prepared from Sphaerotheca fuliginea was inoculated onto the plants, and the controlling effects were examined in a manner similar to Test Example 6.
# Pyricularia oryzae = format: in vivo; conditions: for Control value: Table 3-1
# [2] = Table 6-2, treatment concentration 10 ppm
# [3] = Table 6-3, treatment concentration 10 ppm
# [4] = Table 3-2, treatment concentration 10 ppm
# [5] = Table 3-3, treatment concentration 10 ppm
# [6] = Table 3-4, treatment concentration 10 ppm
# [7] = Table 3-5 (Comparative Example 2), treatment concentration 10 ppm
# [8] = treatment concentration 0.08 ppm
# [9] = Table 6-2, treatment concentration 0.08 ppm
# [10] = treatment concentration 0.4 ppm
structure (smiles),measurement,setting,value
"CC1(C)N=C(c2cnc3ccccc3c2)c2cccc(F)c2C1(C)C [Compound A, 3-(5-fluoro-3,3,4,4-tetramethyl-3,4-dihydroisoquinolin-1-yl)quinoline]",Preventive value,[1]; treatment concentration 10 ppm,27
same,Control value,Blumeria graminis; treatment concentration 10 ppm,6
same,Control value,Botrytis cinerea,64
same,Preventive value,Botrytis cinerea,77 and 70 and 73 and 67 and 40
same,Control value,Puccinia recondita; treatment concentration 10 ppm,11
same,Control value,Phytophthora infestans; treatment concentration 10 ppm,8
same,Preventive value,Phytophthora infestans; [2],33
same,Preventive value,Phytophthora infestans; [3],47
same,Control value,Sphaerotheca fuliginea,33 and 17
same,Preventive value,Sphaerotheca fuliginea,40
same,Control value,Pyricularia oryzae; treatment concentration 10 ppm,67
same,Preventive value,Pyricularia oryzae; [4],73
same,Preventive value,Pyricularia oryzae; [5],73
same,Preventive value,Pyricularia oryzae; [6],67
same,Preventive value,Pyricularia oryzae; [7],67
CC1CC(C)(C)c2cccc(NC(=O)c3cn(C)nc3C(F)F)c21 (centres unmarked) [Compound of formula (II) (b-3)],Control value,Blumeria graminis; treatment concentration 2 ppm,67
same,Control value,Botrytis cinerea,0
same,Control value,Pyricularia oryzae; treatment concentration 2 ppm,17
"Cn1cc(C(=O)Nc2cccc3c2[C@@H]2CC[C@H]3C2=C(Cl)Cl)c(C(F)F)n1 (racemic) [Benzovindiflupyr (b-2), Benzovindiflupyr]",Control value,Blumeria graminis; treatment concentration 2 ppm,50
same,Preventive value,Botrytis cinerea,40
same,Preventive value,"Pyricularia oryzae; Table 3-4, group b ingredient alone, treatment concentration 10 + 2 ppm",40
CC1(CCl)CCC(Cc2ccc(Cl)cc2)C1(O)Cn1cncn1 (centres unmarked) [Compound of formula (VII)-1 (b-38)],Control value,Blumeria graminis; treatment concentration 2 ppm,81
same,Control value,Botrytis cinerea,7
same,Control value,Puccinia recondita; treatment concentration 2 ppm,69
same,Control value,Pyricularia oryzae; treatment concentration 2 ppm,50
"CC1(C)N=C(c2cnc3ccccc3c2)c2cccc(F)c2C1(F)F [Compound C, 3-(4,4,5-trifluoro-3,3-dimethyl-3,4-dihydroisoquinolin-1-yl)quinoline]",Preventive value,[1]; treatment concentration 10 ppm,17
same,Control value,Blumeria graminis; treatment concentration 10 ppm,6
same,Control value,Botrytis cinerea,57
same,Preventive value,Botrytis cinerea,73 and 60 and 70 and 77 and 67 and 40
same,Control value,Puccinia recondita; treatment concentration 10 ppm,8
same,Control value,Phytophthora infestans; treatment concentration 10 ppm,4
same,Preventive value,Phytophthora infestans; [2],40
same,Preventive value,Phytophthora infestans; [3],37
same,Control value,Sphaerotheca fuliginea,33 and 17
same,Preventive value,Sphaerotheca fuliginea,33 and 40
same,Control value,Pyricularia oryzae; treatment concentration 10 ppm,67
same,Preventive value,Pyricularia oryzae; [4],73
same,Preventive value,Pyricularia oryzae; [5],73
same,Preventive value,Pyricularia oryzae; [6],67
same,Preventive value,Pyricularia oryzae; [7],67
"Cc1cc(OC(C)C)ccc1C(=O)C(C)(C)NC(=O)c1sccc1C [Isofetamid (b-47), Isofetamid]",Control value,Blumeria graminis; treatment concentration 10 ppm,67
same,Control value,Puccinia recondita; treatment concentration 10 ppm,3
same,Control value,Pyricularia oryzae; treatment concentration 10 ppm,17
"C#CCOc1ccc(CCNC(=O)C(OCC#C)c2ccc(Cl)cc2)cc1OC (centres unmarked) [Mandipropamid (b-44), Mandipropamid]",Preventive value,[1]; [8],67
same,Preventive value,Phytophthora infestans; [9],67
"Cn1cc(C(=O)Nc2ccccc2-c2cc(F)c(F)c(F)c2)c(C(F)F)n1 [Fluxapyroxad (b-1), Fluxapyroxad]",Control value,Blumeria graminis; treatment concentration 2 ppm,61
same,Preventive value,Botrytis cinerea,33
same,Control value,Puccinia recondita; treatment concentration 2 ppm,72
same,Control value,Pyricularia oryzae; treatment concentration 2 ppm,17
COc1cc(F)c(-c2c(Cl)nc(C)n2-c2cccc(F)c2)c(F)c1 [Compound of formula (XIV) (b-88)],Control value,Blumeria graminis; treatment concentration 2 ppm,56
same,Control value,Botrytis cinerea,14
same,Preventive value,Botrytis cinerea,50
same,Control value,Puccinia recondita; treatment concentration 2 ppm,42
same,Preventive value,Sphaerotheca fuliginea,40
same,Control value,Pyricularia oryzae; treatment concentration 2 ppm,50
"CC1(C)N=C(c2cnc3ccccc3c2)c2ccccc2C1(F)F [Compound B, 3-(4,4-difluoro-3,3-dimethyl-3,4-dihydroisoquinolin-1-yl)quinoline]",Preventive value,[1]; treatment concentration 10 ppm,23
same,Control value,Blumeria graminis; treatment concentration 10 ppm,6
same,Control value,Botrytis cinerea,57
same,Preventive value,Botrytis cinerea,77 and 70 and 73 and 80 and 67 and 40
same,Control value,Puccinia recondita; treatment concentration 10 ppm,6
same,Control value,Phytophthora infestans; treatment concentration 10 ppm,13
same,Preventive value,Phytophthora infestans; [2],33
same,Preventive value,Phytophthora infestans; [3],40
same,Control value,Sphaerotheca fuliginea,33 and 17
same,Preventive value,Sphaerotheca fuliginea,33 and 40
same,Control value,Pyricularia oryzae; treatment concentration 10 ppm,67
same,Preventive value,Pyricularia oryzae; [4],73
same,Preventive value,Pyricularia oryzae; [5],73
same,Preventive value,Pyricularia oryzae; [6],67
same,Preventive value,Pyricularia oryzae; [7],67
"O=C(Nc1ccccc1-c1ccc(F)c(F)c1)c1nccnc1C(F)(F)F [Pyraziflumid (b-49), Pyraziflumid]",Preventive value,Botrytis cinerea,40
same,Control value,Puccinia recondita; treatment concentration 2 ppm,85
same,Control value,Pyricularia oryzae; treatment concentration 2 ppm,17
"COC(=O)[C@@H](C)N(C(=O)Cc1ccccc1)c1c(C)cccc1C [Benalaxyl-M (b-75), Benalaxyl-M]",Preventive value,[1]; treatment concentration 2 ppm,67
same,Preventive value,"Phytophthora infestans; Table 6-2, treatment concentration 2 ppm",40
"CCC(C)(NC(=O)c1cc(Cl)c(C)c(Cl)c1)C(=O)CCl (centres unmarked) [Zoxamide (b-39), Zoxamide]",Preventive value,[1]; [10],33
same,Preventive value,"Phytophthora infestans; Table 6-2, treatment concentration 0.4 ppm",40
"Cc1c(Br)c2ccc(F)cc2n1S(=O)(=O)c1ncn(S(=O)(=O)N(C)C)n1 [Amisulbrom (b-97), Amisulbrom]",Preventive value,[1]; [8],67
same,Preventive value,Phytophthora infestans; [9],50
"Cn1nnnc1/C(=N\OCc1cccc(NC(=O)OC(C)(C)C)n1)c1ccccc1 [Picarbutrazox (b-78), Picarbutrazox]",Control value,Botrytis cinerea,0
same,Control value,Puccinia recondita; [10],3
same,Control value,Phytophthora infestans; [10],75
same,Control value,Pyricularia oryzae; [10],17
